Patent US7342027B2 (Yuhan Corporation, priority 2002, dated 2008)

Assays:
[1] = target: T1, Recombinant human cathepsin K (Homo sapiens, UniProt P43235); test: Inhibition of cathepsin K activity (Z-Phe-Arg-AMC fluorescence assay); type: biochemical; details: 25 uM Z-Phe-Arg-AMC, pH 5.5, 1 hour at 37° C.
T1 construct: made in house
T1 sequence (P43235 115-329): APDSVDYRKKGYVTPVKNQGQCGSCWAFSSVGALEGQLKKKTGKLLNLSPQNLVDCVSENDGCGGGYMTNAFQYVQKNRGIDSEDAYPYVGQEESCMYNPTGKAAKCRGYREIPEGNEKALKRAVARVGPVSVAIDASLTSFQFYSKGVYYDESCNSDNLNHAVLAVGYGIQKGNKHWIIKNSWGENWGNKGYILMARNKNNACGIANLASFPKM
Method in brief: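 Z-Phe-Arg-AMC at 25 uM in 100 mM Na acetate pH 5.5 with 20 mM cysteine, 5 mM EDTA and 2% final DMSO; reaction started by adding enzyme, then 1 hour at 37° C. Fluorescence read at ex 360/em 460 nm; IC50 is the concentration giving 50% inhibition.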

[2] = target: T2, Cathepsin C (Sigma, C8511) (Bos taurus, UniProt Q3ZCJ8); test: Selectivity study: cathepsin C (Gly-Phe-pNA); type: biochemical; details: 1 hour at 37° C., read-out: Cathepsins (IC50, nM) C
T2 construct: purchased Sigma C8511
Method: (§1) Test 2: Selectivity Study
(§2) Selectivity study for the compounds of the present invention was performed using cathepsin C (Sigma, C8511), cathepsin G (Calbiochem, 219373), cathepsin H (Calbiochem, 219388), cathepsin L (Calbiochem, 219402), and cathepsin S (Eur. J. Biochem. 236, 558 (1996) as enzyme sources.
(§3) Cathepsin C (Sigma, C8511) was dissolved in D.W. buffer (pH 5.5). All inhibitors were prepared in dimethyl sulfoxide (DMSO). In vitro assays for cathepsin C were conducted with Gly-Phe-pNA (Sigma, G-0142) as a substrate. Samples were pre-incubated for 10 minutes at 37° C. Reaction was initiated by the addition of enzyme to samples, which were then incubated for 1 hour at 37° C. The absorbance of p-nitroaniline released was monitored at 405 nm using spectrophotometer.
(§4) The concentrations of the test compounds, which inhibit 50% of cathepsin s C, G, H, L and S activity, are represented as IC50 in Table 2.

[3] = target: T3, Cathepsin G (Calbiochem, 219373) (Homo sapiens, UniProt P08311); test: Selectivity study: cathepsin G (Suc-Ala-Ala-Pro-Phe-pNA); type: biochemical; details: 1 hour at 25° C., read-out: Cathepsins (IC50, nM) G
T3 construct: purchased Calbiochem 219373
T3 sequence (P08311 21-244): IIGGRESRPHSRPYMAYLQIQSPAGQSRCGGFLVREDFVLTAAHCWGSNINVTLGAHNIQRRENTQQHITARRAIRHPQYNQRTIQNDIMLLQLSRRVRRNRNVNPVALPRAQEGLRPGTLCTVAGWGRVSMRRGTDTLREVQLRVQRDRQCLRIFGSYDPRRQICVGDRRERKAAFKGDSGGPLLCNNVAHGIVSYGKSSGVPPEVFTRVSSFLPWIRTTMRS
Method: as §1, §2
as §3, with “Cathepsin G (Calbiochem, 219373)” for “Cathepsin C (Sigma, C8511)”, “in 50 mM NaOAc and 150 mM NaCl” for “in D.W.”, “cathepsin G” for “cathepsin C”, “with Suc-Ala-Ala-Pro-Phe-pNA (Calbiochem, 219407)” for “with Gly-Phe-pNA (Sigma, G-0142)”, “at 25°” for “at 37°”
as §4

[4] = target: T4, Cathepsin H (Calbiochem, 219388) (Homo sapiens, UniProt P09668); test: Selectivity study: cathepsin H (L-Arg-pNA); type: biochemical; details: 1 hour at 40° C., read-out: Cathepsins (IC50, nM) H
T4 construct: purchased Calbiochem 219388
T4 sequence (P09668 98-335): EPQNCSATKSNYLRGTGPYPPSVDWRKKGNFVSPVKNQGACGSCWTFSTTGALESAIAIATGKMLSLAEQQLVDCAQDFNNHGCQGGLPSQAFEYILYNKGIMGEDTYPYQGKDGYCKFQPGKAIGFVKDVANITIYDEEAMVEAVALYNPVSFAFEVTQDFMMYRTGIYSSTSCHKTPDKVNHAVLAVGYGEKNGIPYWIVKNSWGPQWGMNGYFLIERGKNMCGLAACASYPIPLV
Method: as §1, §2
Cathepsin H (Calbiochem, 219388) was dissolved in 20 mM NaOAc, 1 mM EDTA-2Na and 100 mM NaCl buffer (pH 4.6). All inhibitors were prepared dimethyl sulfoxide (DMSO). In vitro assays for cathepsin H were conducted with L-Arg-pNA (BACHEM, 1-1160) as a substrate. Samples were pre-incubated for 5 minutes at 40° C. Reaction was initiated by the addition of enzyme to samples, which were then incubated for 1 hour at 40° C. The absorbance of p-nitroaniline released was monitored at 405 nm using spectrophotometer.
as §4

[5] = target: T5, Cathepsin L (Calbiochem, 219402) (Homo sapiens, UniProt P07711); test: Selectivity study: cathepsin L (Z-Phe-Arg-AMC); type: biochemical; details: 1 hour at 25° C., read-out: Cathepsins (IC50, nM) L
T5 construct: purchased Calbiochem 219402
Method: as §1, §2
Cathepsin L (Calbiochem, 219402) was dissolved in 50 mM NaOAc buffer (pH 5.0). All inhibitors were prepared in dimethyl sulfoxide (DMSO). […] Samples were pre-incubated for 5 minutes at 25° C. Reaction was initiated by the addition of enzyme to samples, which were then incubated for 1 hour at 25° C. The fluorescence of AMC (7-amino-4-methylcoumarin) was monitored at 460 nm (excitation wavelength 360 nm), using fluorescence spectrophotometer.
as §4

[6] = target: Recombinant human Cathepsin S (Homo sapiens, UniProt P25774); test: Selectivity study: cathepsin S (Z-Val-Val-AMC); type: biochemical; details: 30 minutes at 37° C., read-out: Cathepsins (IC50, nM) S
Method: as §1, §2
Recombinant human Cathepsin S (Eur. J. Biochem. 236, 558 (1996) was dissolved in 0.1 M NaOAc 1 mM EDTA-4Na buffer (pH 5.5). All inhibitors were prepared in dimethyl sulfoxide (DMSO). In vitro assays for cathepsin S were conducted with Z-Val-Val-AMC (BACHEM, 1-1160) as a substrate. Samples were pre-incubated for 10 minutes at 4° C. Reaction was initiated by the addition of enzyme to samples, which were then incubated for 30 minutes at 37° C. The florescence of AMC (7-amino-4-methylcoumarin) released was monitored at 465 nm (excitation wavelength 360 nm), using fluorescence spectrophotometer.
as §4

Chain of Recombinant human Cathepsin S (P25774 115-331): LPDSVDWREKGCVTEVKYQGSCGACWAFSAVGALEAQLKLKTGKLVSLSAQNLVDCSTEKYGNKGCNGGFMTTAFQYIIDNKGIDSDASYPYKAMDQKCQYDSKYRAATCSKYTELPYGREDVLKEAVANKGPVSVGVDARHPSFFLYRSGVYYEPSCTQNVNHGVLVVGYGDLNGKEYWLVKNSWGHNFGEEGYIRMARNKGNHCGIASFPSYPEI
T5 sequence (P07711 114-333): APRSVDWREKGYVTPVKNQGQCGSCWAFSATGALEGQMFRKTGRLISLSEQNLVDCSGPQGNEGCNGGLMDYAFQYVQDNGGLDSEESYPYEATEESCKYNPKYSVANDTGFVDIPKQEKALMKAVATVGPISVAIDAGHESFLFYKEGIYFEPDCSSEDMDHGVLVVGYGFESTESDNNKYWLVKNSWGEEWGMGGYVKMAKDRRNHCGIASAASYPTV
T2 sequence (Q3ZCJ8 25-463): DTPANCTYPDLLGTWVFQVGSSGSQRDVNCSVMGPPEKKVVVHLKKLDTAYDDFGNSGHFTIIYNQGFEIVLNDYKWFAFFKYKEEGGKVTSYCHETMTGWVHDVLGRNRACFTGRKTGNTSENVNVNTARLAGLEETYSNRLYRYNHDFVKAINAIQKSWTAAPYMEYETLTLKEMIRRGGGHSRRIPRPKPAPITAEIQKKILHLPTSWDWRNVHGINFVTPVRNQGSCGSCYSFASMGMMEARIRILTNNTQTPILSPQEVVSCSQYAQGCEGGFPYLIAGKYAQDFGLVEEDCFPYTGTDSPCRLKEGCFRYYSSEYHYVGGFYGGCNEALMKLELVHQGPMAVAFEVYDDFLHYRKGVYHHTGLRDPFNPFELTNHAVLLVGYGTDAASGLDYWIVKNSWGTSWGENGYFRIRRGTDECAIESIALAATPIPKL

Compound	IC50 [1]	IC50 [2]	IC50 [3]	IC50 [4]	IC50 [5]	IC50 [6]	melting point
CS(=O)(=O)c1ccccc1N1CCC(NC(=O)C2(NC(=O)c3cc4ccccc4o3)CCCCC2)C(=O)C1 (stereo not shown) [Example 1, 4-[N-[1-[N-(benzofuran-2-ylcarbonyl)amino]cyclohexanecarbonyl]amino]-1-(2-methylsulfonylphenyl)piperidin-3-one]	8.17 nM	382 nM	> 240 nM	> 240 nM	138 nM	133 nM	219 to 220 °C
O=C(NC1(C(=O)NC2CCN(c3ccccc3[N+](=O)[O-])CC2=O)CCCCC1)c1cc2ccccc2o1 (stereo not shown) [Example 2, 4-[N-[1-[N-(benzofuran-2-ylcarbonyl)amino]cyclohexanecarbonyl]amino]-1-(2-nitrophenyl)piperidin-3-one]	5.97 nM	> 1000 nM	> 1000 nM	> 1000 nM	2100 nM	2100 nM	–
COc1ccc(N2CCC(NC(=O)C3(NC(=O)c4ccc(F)cc4)CCCCC3)C(=O)C2)c(S(C)(=O)=O)c1 (stereo not shown) [Example 148, 4-[N-[1-[N-(4-fluorobenzoyl)amino]cyclohexanecarbonyl]amino]-1-(2-methanesulfonyl-4-methoxyphenyl)piperidin-3-one]	3.12 nM	> 1000 nM	> 1000 nM	> 1000 nM	178 nM	141 nM	–
